Measured values as given in article PMC3818835, “What Goes around Comes around-A Comparative Study of the Influence of Chemical Modifications on the Antimicrobial Properties of Small Cyclic Peptides” (Pharmaceuticals, 2013).
Values after ≈ are worked out from the molar mass of the structure shown. Numbered stars: 1 amine (or outer) side, 2 acyl side, 3 side chain; on linkers, the order of the positions; unused ones are H or OH. Square brackets hold non-standard residues; d marks the D form. Peptide text beside a SMILES is read from it. * marks the point of attachment. 6FAM = O=C1OC2(c3ccc(O)cc3Oc3cc(O)ccc32)c2cc(C(=O)*)ccc21; X1 = COc1ccc2c(CC(N[*:1])C(=O)[*:2])cc(=O)oc2c1; NBD = O=[N+]([O-])c1ccc(*)c2nonc12; X2 = O=c1cc(C*)c2cc(Br)c(O)cc2o1; Dap = NC[C@H](N)C(=O)O

Assays:
[1] = Hydrophobicity: retention time tR by reversed phase HPLC; type: physicochemical; conditions: chromatographic, RP-HPLC ProntoSil 300-5-C18-H (250 × 4.6 mm, 5 µm); peptide 1 mg/mL in phase A (0.1% TFA in water); B 0.1% TFA in 80% acetonitrile; linear gradient 5%–95% B over 40 min at 22 °C; used as a measure of hydrophobicity
Method: The retention time tR of the cyclic hexapeptides was determined by HPLC on a Jasco LC-2000Plus using a ProntoSil 300-5-C18-H column (250 × 4.6 mm, 5 µm) (Bischoff Chromatography). Peptide concentration was 1 mg/mL in mobile phase A (0.1% TFA in deionized water), mobile phase B consisted of 0.1% TFA in 80% acetonitrile in deionized water. For chromatographic analyses a linear gradient of 5%–95% phase B over 40 min at 22 °C was applied.
To investigate the influence of fluorescent label modification and amino acid substitution on the hydrophobicity/amphipathicity of the cyclic hexapeptide derivatives, we determined the retention time tR by reversed phase HPLC (Figure 2). The method monitors the retention of compounds by the hydrophobic HPLC stationary phase. Differences in tR reflect differences in the effective hydrophobicity of the molecule which is related to the intrinsic hydrophobicity of the individual residues and their ability to form hydrophobic domains for interaction with the HPLC matrix. At the same time, hydrophilic residues will locate at the opposite side of the molecule. Reduction in the size or positioning of cationic residues next to the hydrophobic molecular surface area would reduce amphipathicity. tR-measurements have successfully been applied to characterize amphipathic helices, β-structured peptides and different sets of our small cyclic R-, W-rich peptides.

E. coli DH5α [2] = assay: Propidium iodide influx (membrane permeabilisation), flow cytometry; type: cell-based; conditions: FACS, PI 10 µg/mL, peptide at respective MIC, LB, 5 × 10^5 cells/mL, 0-90 min at 37 °C
Method: (§1) Membrane permeabilisation was determined by fluorescence activated cell sorting (FACS) on a FACSCalibur (Becton Dickinson) equipped with a 488 nm argon laser. Propidium iodide (PI, 10 µg/mL) and peptides at a final concentration corresponding to the respective MIC were dissolved in LB. Cells were grown to mid log phase (OD600 0.4 ± 0.1) and added to the solution just before the measurement at a concentration of 5 × 10^5 cells/mL. Cells were sorted on the basis of PI fluorescence which increases upon intercalation with DNA. This can only be observed in the case of disturbed membrane integrity as PI cannot translocate across intact lipid bilayers. Cell fluorescence was measured after incubation time points of 0, 5, 10, 15, 20, 30, 60 and 90 min at 37 °C, 180 rpm. A minimum of 20,000 cells was recorded for each preparation. CellQuest^TM Pro software (Becton Dickinson) was used for data acquisition and results were analyzed with FCS Express V3 (De Novo Software, Los Angeles, CA, USA).

human erythrocytes = type: cell-based; conditions: pH 7.4
Method: The lytic effect of selected peptides upon human erythrocytes was determined as described before. Briefly, cells were washed thoroughly in Tris buffer (10 mM Tris, 150 mM NaCl, pH 7.4). Suspensions with 2.5 × 10^8 cells/mL were incubated with peptides at a final concentration of 100 µM for 30 min at 37 °C. After centrifugation, 0.6% NH4OH was added to an aliquot of the supernatant and hemoglobin absorption (A) was measured at 540 nm (Jasco V-550). Whole cell suspensions exposed to NH4OH were used as positive control (A100%) and preparations without peptide served as negative control (A0%), respectively. Data were collected in three independent experiments.

B. subtilis DSM 347 [3] = type: cell-based; conditions: DSM 347, 18 h
Method: (§2) The minimal inhibitory concentration (MIC) of the cyclic hexapeptides was tested against Gram-negative E. coli DH5α and Gram-positive B. subtilis DSM 347 using a microdilution technique in 96 well microtiter plates as described previously. Briefly, cells from an overnight culture were inoculated 1:100 in LB medium, grown to mid log phase (OD600 0.4 ± 0.1) and adjusted to 5 × 10^5 cells/well. Final peptide concentrations ranged from 0.05 µM to 100 µM (2-fold dilutions) and were tested in triplicates in at least three independent experiments. The MIC was determined after 18 h of incubation at 37 °C, 180 rpm being the lowest peptide concentration at which no visible bacterial growth can be detected photometrically (A600, Safire Microplate Reader, Tecan, Männedorf, Germany).

E. coli DH5α [4] = type: cell-based; conditions: 18 h
Method: as §2

E. coli DH5α [5] = conditions: 5 µM, PI influx; cited from earlier work
Method: (§3) Figure 4 Bacterial membrane permeabilisation determined with flow cytometry using propidium iodide (PI). PI influx after incubation with cWFW, fluorescent-labeled and K-substituted cyclic hexapeptides was tested into B. subtilis DSM 347 (A,C) and E. coli DH5α (B,D) at respective MICs. […] Preparations without peptide were used as negative co ...

B. subtilis DSM 347 [6] = assay: Propidium iodide influx (membrane permeabilisation), flow cytometry; type: cell-based; conditions: FACS, PI 10 µg/mL, peptide at respective MIC, LB, 5 × 10^5 cells/mL, 0-90 min at 37 °C
Method: as §1

B. subtilis DSM 347 [7] = conditions: 5 µM, PI influx; cited from earlier work
Method: as §3

Compound | Retention Time tR [1] [min] | PI influx / membrane permeabilisation, E. coli (E. coli DH5α [2]) | Hemolysis at 100 µM (human erythrocytes) [%] | MIC B. subtilis DSM 347 (B. subtilis DSM 347 [3]) [µM] | MIC E. coli DH5α (E. coli DH5α [4]) [µM] | Membrane permeabilising potential, Gram-negative cells (positive control) (E. coli DH5α [5]) | PI influx / membrane permeabilisation, B. subtilis (B. subtilis DSM 347 [6]) | Membrane permeabilising potential, Gram-positive cells (positive control) (B. subtilis DSM 347 [7])
COc1ccc2c(CC3NC(=O)[C@H](Cc4c[nH]c5ccccc45)NC(=O)[C@H](CCCCN)NC(=O)[C@H](CCCNC(=N)N)NC(=O)[C@H](CCCCN)NC(=O)[C@H](Cc4c[nH]c5ccccc45)NC3=O)cc(=O)oc2c1 (stereo partly shown) [cR2[Cu]] (cyclo(KRKW[X1]W)) | 17.20 | pronounced membrane disruption | 4 | 6 (≈ 6.18 µg/mL) | 50 (≈ 51.5 µg/mL) | – | – | –
N=C(N)NCCC[C@@H]1NC(=O)[C@H](CCCCN)NC(=O)[C@H](Cc2c[nH]c3ccccc23)NC(=O)[C@H](CSCc2cc(=O)oc3cc(O)c(Br)cc23)NC(=O)[C@H](Cc2c[nH]c3ccccc23)NC(=O)[C@H](CCCCN)NC1=O [cR2[S-Cu]] (cyclo(KRKWC(X2)W)) | 17.49 | – | 5 | 25 (≈ 28.5 µg/mL) | 50 (≈ 57.1 µg/mL) | – | – | –
polymyxin B | – | – | – | – | – | high membrane permeabilising potential | – | –
N=C(N)NCCC[C@@H]1NC(=O)[C@H](CCCNC(=N)N)NC(=O)[C@H](Cc2c[nH]c3ccccc23)NC(=O)[C@H](CSCc2cc(=O)oc3cc(O)c(Br)cc23)NC(=O)[C@H](Cc2c[nH]c3ccccc23)NC(=O)[C@H](CCCNC(=N)N)NC1=O [cW[S-Cu]W] (cyclo(RRRWC(X2)W)) | 18.91 | pronounced membrane disruption | 76 | 6 (≈ 7.18 µg/mL) | 25 (≈ 29.9 µg/mL) | – | slightly higher | –
N=C(N)NCCC[C@@H]1NC(=O)[C@H](CCCCN)NC(=O)[C@H](CCCNC(=N)N)NC(=O)[C@H](Cc2c[nH]c3ccccc23)NC(=O)[C@H](Cc2ccccc2)NC(=O)[C@H](Cc2c[nH]c3ccccc23)NC1=O [cRKR] (cyclo(RKRWFW)) | 18.60 | – | 4 | 12 (≈ 11.5 µg/mL) | 50 (≈ 48 µg/mL) | – | – | –
N=C(N)NCCC[C@@H]1NC(=O)[C@H](CCCNC(=N)N)NC(=O)[C@H](CCCCNC(=O)c2ccc3c(c2)C2(OC3=O)c3ccc(O)cc3Oc3cc(O)ccc32)NC(=O)[C@H](Cc2c[nH]c3ccccc23)NC(=O)[C@H](Cc2c[nH]c3ccccc23)NC(=O)[C@H](CCCNC(=N)N)NC1=O [cW2[Fluos]] (cyclo(RRRWWK(6FAM))) | 19.28 | – | 9 | >100 | >100 | – | – | –
N=C(N)NCCC[C@@H]1NC(=O)[C@H](CCCCNC(=O)c2ccc3c(c2)C2(OC3=O)c3ccc(O)cc3Oc3cc(O)ccc32)NC(=O)[C@H](Cc2c[nH]c3ccccc23)NC(=O)[C@H](Cc2c[nH]c3ccccc23)NC(=O)[C@H](Cc2c[nH]c3ccccc23)NC(=O)[C@H](CCCNC(=N)N)NC1=O [cW3[Fluos]] (cyclo(RRWWWK(6FAM))) | 22.08 | – | 2 | >100 | >100 | – | – | –
N=C(N)NCCC[C@@H]1NC(=O)[C@H](Cc2c[nH]c3ccccc23)NC(=O)[C@H](Cc2ccccc2)NC(=O)[C@H](Cc2c[nH]c3ccccc23)NC(=O)[C@H](CCCCN)NC(=O)[C@H](CCCCN)NC1=O [cRKK] (cyclo(RKKWFW)) | 18.38 | – | 56 | 25 (≈ 23.3 µg/mL) | 50 (≈ 46.6 µg/mL) | – | – | –
N=C(N)NCCC[C@@H]1NC(=O)[C@H](CCCCN)NC(=O)[C@H](Cc2c[nH]c3ccccc23)NC(=O)[C@H](Cc2ccccc2)NC(=O)[C@H](Cc2c[nH]c3ccccc23)NC(=O)[C@H](CCCCN)NC1=O [cKRK] (cyclo(KRKWFW)) | 17.27 | – | 2 | 25 (≈ 23.3 µg/mL) | 12 (≈ 11.2 µg/mL) | – | – | –
COc1ccc2c(CC3NC(=O)[C@H](Cc4c[nH]c5ccccc45)NC(=O)[C@H](CCCNC(=N)N)NC(=O)[C@H](CCCNC(=N)N)NC(=O)[C@H](CCCNC(=N)N)NC(=O)[C@H](Cc4c[nH]c5ccccc45)NC3=O)cc(=O)oc2c1 (stereo partly shown) [cW[Cu]W] (cyclo(RRRW[X1]W)) | 18.40 | pronounced membrane disruption | 23 | 6 (≈ 6.52 µg/mL) | 25 (≈ 27.2 µg/mL) | – | slightly higher | –
N=C(N)NCCC[C@@H]1NC(=O)[C@H](CCCCN)NC(=O)[C@H](Cc2c[nH]c3ccccc23)NC(=O)[C@H](CNc2ccc([N+](=O)[O-])c3nonc23)NC(=O)[C@H](Cc2c[nH]c3ccccc23)NC(=O)[C@H](CCCCN)NC1=O [cR2[NBD]] (cyclo(KRKW[Dap](NBD)W)) | 17.47 | No E. coli membrane permeabilisation could be detected | 26 | 12 (≈ 12.4 µg/mL) | 50 (≈ 51.7 µg/mL) | – | – | –
N=C(N)NCCC[C@@H]1NC(=O)[C@H](CCCNC(=N)N)NC(=O)[C@H](Cc2c[nH]c3ccccc23)NC(=O)[C@H](CNc2ccc([N+](=O)[O-])c3nonc23)NC(=O)[C@H](Cc2c[nH]c3ccccc23)NC(=O)[C@H](CCCNC(=N)N)NC1=O [cW[NBD]W] (cyclo(RRRW[Dap](NBD)W)) | 17.90 | pronounced membrane disruption | 76 | 25 (≈ 27.3 µg/mL) | 50 (≈ 54.5 µg/mL) | – | – | –
KLALKLALKALKAALKLA-NH2 [KLA-1, helical model peptide …-NH2, positive control in Gram-positive cells] | – | – | – | – | – | – | – | high membrane permeabilising potential
NCCCC[C@@H]1NC(=O)[C@H](CCCCN)NC(=O)[C@H](Cc2c[nH]c3ccccc23)NC(=O)[C@H](Cc2ccccc2)NC(=O)[C@H](Cc2c[nH]c3ccccc23)NC(=O)[C@H](CCCCN)NC1=O [cKKK] (cyclo(KKKWFW)) | 17.70 | – | 8 | 50 (≈ 45.2 µg/mL) | 100 (≈ 90.4 µg/mL) | – | – | –
N=C(N)NCCC[C@@H]1NC(=O)[C@H](CCCCN)NC(=O)[C@H](CCCCN)NC(=O)[C@H](Cc2c[nH]c3ccccc23)NC(=O)[C@H](Cc2ccccc2)NC(=O)[C@H](Cc2c[nH]c3ccccc23)NC1=O [cKKR] (cyclo(KKRWFW)) | 17.86 | – | 3 | 25 (≈ 23.3 µg/mL) | 100 (≈ 93.2 µg/mL) | – | – | –
